The source made the active and inactive calls. Rule as the data show it, for most assays here: actives have a measured EC50 and inactives only a lower limit.
Columns and labels:
[1] = target: Eukaryotic translation initiation factor 4H (Homo sapiens, UniProt Q15056); test: eIF4H binding inhibition – biochemical, uHTS, fluorescence polarization, translation initiation inhibitor project, primary screen (AID 2012)
[2] = target: Polyadenylate-binding protein 1 (Homo sapiens, UniProt P11940); test: blockers of PABP interaction with poly(A) – biochemical, fluorescence polarization, […] (AID 2014)
[3] = target: T1, DNA dC->dU-editing enzyme APOBEC-3A (Homo sapiens, UniProt P31941); test: Dose Response confirmation of small molecule APOBEC3A DNA Deaminase Inhibitors via a fluorescence-based single-stranded DNA deaminase assay. [Related pubchem assays (depositor defined):AID493011, AID493024]; type: functional
[4] = target: T2, DNA dC->dU-editing enzyme APOBEC-3G (Homo sapiens, UniProt Q9HC16); type: functional;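 also: Dose-response counterscreen measuring inhibition of APOBEC3G DNA deaminase activity, run while confirming APOBEC3A inhibitors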
[5] = target: T2, DNA dC->dU-editing enzyme APOBEC-3G; test: inhibition of APOBEC3G ssDNA deamination – biochemical, fluorescence, single-stranded DNA substrate, SAR follow-up (AID 602136); type: functional; details: read-out: IC50_Mean
[6] = target: T1, DNA dC->dU-editing enzyme APOBEC-3A; test: SAR analysis of small molecule inhibitors of APOBEC3A DNA Deaminase via a fluorescence-based single-stranded DNA deaminase assay.; type: functional; details: read-out: IC50_Mean
[7] = target: Lysine-specific demethylase 4C (Homo sapiens, UniProt Q9H3R0); test: inhibition of JMJD2C H3K9me3 demethylation – biochemical, DELFIA europium, cherry-picked samples, dose response (AID 488835); type: functional
[8] = target: Apoptotic protease-activating factor 1 (Homo sapiens, UniProt O14727); type: functional
[9] = NIH-3T3 fibroblast cytotoxicity, dose response, cytotoxicity control, cell-based, fluorescence, Alamar Blue, secondary assay (AID 2327); type: functional;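 also: NIH-3T3 mouse fibroblasts cultured with fluconazole at 8 µg/mL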
BJ [10] = test: BJ-TERT fibroblast viability loss – cell-based, RAS-independent, luminescence, dose response (AID 1933); type: functional; details: Homo sapiens
cells [11] = type: functional, cell-based
BJ [12] = test: cells; type: functional, cell-based; details: Homo sapiens
[13] = fluconazole-exposed Candida albicans growth modulators – fluorescence, retest, confirmation (AID 2467); type: functional, cell-based
[14] = Luminescence-based counterscreen assay for KLF5 inhibitors: dose response cell-based high throughput screening assay to identify cytotoxic compounds using the IEC-6 intestinal epithelial cell line. [Related pubchem assays: 1700 (Primary screen.), 1834 (Confirmation screen.), 1858 (Summary AID.), 1905 (Counterscreen.)]; type: functional
[15] = Trypanosoma cruzi growth suppression in host cells – NIH3T3 host cells, beta-gal luminescence, confirmation (AID 2044); type: functional, cell-based;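 also: intracellular parasites grown in NIH/3T3 mouse fibroblasts as host cells; luminescent beta-galactosidase reporter signal from transgenic T. cruzi replicating inside host cells; inhibitors lower the luminescence signal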
cells [16] = type: functional, cell-based; remark: listed apart in the source
[17] = target: T3, Serine/threonine-protein phosphatase (Candida dubliniensis (strain CD36 / CBS 7987 / NCPF 3949 / NRRLY-17841) (Yeast), UniProt B9W6M3); test: blockers of CaCl2-induced CDRE-lacZ signaling – S. cerevisiae, luminescence, secondary, dose response (AID 2388); type: functional, cell-based;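 also: yeast reporter cells carrying a calcineurin-responsive lacZ construct stimulated with calcium chloride; luminescent beta-galactosidase reporter signal in whole cells rather than isolated phosphatase activity; potency for inhibition where a drop in reporter signal means calcineurin blockade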
T3 sequence (B9W6M3 whole entry): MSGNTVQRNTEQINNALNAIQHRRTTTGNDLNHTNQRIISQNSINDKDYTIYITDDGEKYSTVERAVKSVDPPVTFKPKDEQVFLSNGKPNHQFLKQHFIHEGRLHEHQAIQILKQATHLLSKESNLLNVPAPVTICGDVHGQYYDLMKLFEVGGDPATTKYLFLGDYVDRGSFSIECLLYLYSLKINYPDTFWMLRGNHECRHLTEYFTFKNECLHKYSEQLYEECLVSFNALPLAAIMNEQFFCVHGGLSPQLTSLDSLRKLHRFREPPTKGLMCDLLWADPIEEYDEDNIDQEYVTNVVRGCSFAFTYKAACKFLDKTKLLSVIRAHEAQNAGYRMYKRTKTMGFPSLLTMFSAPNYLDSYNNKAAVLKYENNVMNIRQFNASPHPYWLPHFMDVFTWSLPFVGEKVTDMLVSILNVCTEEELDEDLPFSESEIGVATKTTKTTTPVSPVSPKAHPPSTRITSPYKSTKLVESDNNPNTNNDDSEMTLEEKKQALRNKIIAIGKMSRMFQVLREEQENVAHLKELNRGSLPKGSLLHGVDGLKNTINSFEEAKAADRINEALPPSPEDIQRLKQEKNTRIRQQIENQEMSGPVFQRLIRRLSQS

[18] = NIH3T3 cell viability loss – ATP luminescence, mouse fibroblasts, counter-screen, dose response (AID 2010); type: functional, cell-based;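 also: cells exposed to compound for about 90 hours before reading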
BJ [19] = test: BJ-TERT-LT-ST fibroblast viability loss – cell-based, RAS-independent, luminescence, dose response (AID 1935); type: functional; details: Homo sapiens;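 also: BJ fibroblasts immortalized with TERT plus LT and ST oncogenes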
[20] = DRD fibroblast viability loss – cell-based, non-viral oncogenic, luminescence, dose response (AID 1934); type: functional; details: Homo sapiens
HEK293 = test: EBV LMP1 TES2 canonical NF-kB signalling blockers – cell-based, HEK293, luciferase, cherry-pick, dose response (AID 588343); type: functional; details: Homo sapiens
[21] = target: Latent membrane protein 1 (Human herpesvirus 4 (strain B95-8), UniProt P03230); test: LMP1 TES1 pathway selectivity over dsRED control – imaging, HEK293T, dual-color eGFP/dsRED, cherry-picks, selectivity assay for LMP1 NF-kB inhibitor project, dose response (AID 588398); type: functional, cell-based
[22] = target: ATP-dependent molecular chaperone HSP82 (Candida albicans (strain WO-1) (Yeast), UniProt C4YTQ8); test: steroid-induced GRE reporter decrease in yeast – S. cerevisiae, luminescence, Hsp90 inhibitor project, dose response (AID 2400); type: functional, cell-based;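 also: beta-galactosidase luminescence from glucocorticoid response element reporter as proxy for Hsp90 function; inhibitor potency where signal loss means Hsp90 inhibition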
Sequence of ATP-dependent molecular chaperone HSP82 (C4YTQ8 whole entry): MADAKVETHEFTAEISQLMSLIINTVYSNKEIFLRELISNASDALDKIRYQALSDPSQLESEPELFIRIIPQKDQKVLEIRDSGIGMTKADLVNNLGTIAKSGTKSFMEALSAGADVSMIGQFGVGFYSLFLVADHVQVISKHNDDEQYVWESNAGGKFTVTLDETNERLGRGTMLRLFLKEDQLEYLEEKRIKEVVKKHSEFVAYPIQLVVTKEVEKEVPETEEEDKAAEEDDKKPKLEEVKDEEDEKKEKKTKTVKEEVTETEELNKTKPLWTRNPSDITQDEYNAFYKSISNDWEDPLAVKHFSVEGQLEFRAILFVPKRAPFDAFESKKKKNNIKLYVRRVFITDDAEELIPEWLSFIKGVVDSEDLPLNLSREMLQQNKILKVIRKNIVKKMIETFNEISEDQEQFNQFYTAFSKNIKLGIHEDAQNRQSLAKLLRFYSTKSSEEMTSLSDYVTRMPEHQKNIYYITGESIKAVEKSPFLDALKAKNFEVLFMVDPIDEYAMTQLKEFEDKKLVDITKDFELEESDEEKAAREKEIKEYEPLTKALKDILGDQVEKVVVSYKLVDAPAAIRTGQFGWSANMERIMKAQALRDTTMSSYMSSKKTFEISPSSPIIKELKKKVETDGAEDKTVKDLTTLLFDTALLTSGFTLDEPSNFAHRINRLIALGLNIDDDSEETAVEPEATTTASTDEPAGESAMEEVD

T1 sequence (P31941 whole entry): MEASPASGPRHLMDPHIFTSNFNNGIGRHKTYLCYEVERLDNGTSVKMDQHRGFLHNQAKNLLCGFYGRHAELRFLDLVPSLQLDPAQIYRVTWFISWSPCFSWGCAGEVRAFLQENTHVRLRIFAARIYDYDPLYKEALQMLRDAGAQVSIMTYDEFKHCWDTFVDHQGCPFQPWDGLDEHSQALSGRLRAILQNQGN
T2 sequence (Q9HC16 whole entry): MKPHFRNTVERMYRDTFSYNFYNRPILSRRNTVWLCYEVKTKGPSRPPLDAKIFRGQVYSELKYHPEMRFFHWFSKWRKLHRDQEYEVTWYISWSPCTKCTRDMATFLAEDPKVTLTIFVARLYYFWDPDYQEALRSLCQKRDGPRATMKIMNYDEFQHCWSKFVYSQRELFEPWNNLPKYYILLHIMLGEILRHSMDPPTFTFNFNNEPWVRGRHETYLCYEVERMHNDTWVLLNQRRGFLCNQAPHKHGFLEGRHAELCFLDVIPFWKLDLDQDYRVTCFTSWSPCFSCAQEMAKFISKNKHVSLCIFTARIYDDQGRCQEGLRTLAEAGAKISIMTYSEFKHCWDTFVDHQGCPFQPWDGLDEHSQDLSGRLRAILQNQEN
Sequence of Latent membrane protein 1 (P03230 whole entry): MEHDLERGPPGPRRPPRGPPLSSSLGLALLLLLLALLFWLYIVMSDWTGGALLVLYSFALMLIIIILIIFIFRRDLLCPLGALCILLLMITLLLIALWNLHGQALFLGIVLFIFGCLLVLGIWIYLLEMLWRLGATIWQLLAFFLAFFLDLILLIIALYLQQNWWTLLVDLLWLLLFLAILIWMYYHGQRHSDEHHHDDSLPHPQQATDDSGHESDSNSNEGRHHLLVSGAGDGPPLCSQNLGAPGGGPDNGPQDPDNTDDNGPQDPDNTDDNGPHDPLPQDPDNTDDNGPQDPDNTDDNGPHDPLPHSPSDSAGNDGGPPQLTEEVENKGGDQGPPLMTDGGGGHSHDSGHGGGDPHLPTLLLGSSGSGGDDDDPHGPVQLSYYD
Sequence of Lysine-specific demethylase 4C (Q9H3R0 whole entry): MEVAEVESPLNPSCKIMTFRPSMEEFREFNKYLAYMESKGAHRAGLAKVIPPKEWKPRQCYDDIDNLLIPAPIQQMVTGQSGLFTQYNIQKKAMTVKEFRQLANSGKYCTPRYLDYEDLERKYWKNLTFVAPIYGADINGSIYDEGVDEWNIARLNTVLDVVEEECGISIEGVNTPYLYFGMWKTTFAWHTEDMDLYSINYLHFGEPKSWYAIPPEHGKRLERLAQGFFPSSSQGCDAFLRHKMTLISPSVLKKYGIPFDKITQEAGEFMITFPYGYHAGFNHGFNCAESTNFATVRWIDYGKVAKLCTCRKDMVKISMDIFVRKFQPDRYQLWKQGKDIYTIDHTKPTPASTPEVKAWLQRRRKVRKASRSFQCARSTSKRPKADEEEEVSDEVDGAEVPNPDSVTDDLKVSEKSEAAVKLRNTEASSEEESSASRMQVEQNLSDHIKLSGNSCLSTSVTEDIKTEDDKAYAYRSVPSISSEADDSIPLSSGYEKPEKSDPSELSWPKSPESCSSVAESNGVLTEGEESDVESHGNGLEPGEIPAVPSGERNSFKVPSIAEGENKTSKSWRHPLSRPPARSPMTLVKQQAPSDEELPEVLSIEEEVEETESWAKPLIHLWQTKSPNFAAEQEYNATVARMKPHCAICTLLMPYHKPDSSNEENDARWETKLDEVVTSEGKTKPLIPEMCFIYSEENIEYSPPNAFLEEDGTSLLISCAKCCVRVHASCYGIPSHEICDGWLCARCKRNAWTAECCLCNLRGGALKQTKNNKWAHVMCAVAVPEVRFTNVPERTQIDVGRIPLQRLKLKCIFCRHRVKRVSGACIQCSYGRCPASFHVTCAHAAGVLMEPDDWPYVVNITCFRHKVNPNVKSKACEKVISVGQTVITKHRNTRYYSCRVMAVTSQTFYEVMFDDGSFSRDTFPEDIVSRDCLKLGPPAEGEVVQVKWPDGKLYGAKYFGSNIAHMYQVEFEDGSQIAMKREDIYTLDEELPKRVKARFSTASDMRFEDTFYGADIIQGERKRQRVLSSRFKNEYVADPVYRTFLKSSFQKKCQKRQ
Sequence of Polyadenylate-binding protein 1 (P11940 whole entry): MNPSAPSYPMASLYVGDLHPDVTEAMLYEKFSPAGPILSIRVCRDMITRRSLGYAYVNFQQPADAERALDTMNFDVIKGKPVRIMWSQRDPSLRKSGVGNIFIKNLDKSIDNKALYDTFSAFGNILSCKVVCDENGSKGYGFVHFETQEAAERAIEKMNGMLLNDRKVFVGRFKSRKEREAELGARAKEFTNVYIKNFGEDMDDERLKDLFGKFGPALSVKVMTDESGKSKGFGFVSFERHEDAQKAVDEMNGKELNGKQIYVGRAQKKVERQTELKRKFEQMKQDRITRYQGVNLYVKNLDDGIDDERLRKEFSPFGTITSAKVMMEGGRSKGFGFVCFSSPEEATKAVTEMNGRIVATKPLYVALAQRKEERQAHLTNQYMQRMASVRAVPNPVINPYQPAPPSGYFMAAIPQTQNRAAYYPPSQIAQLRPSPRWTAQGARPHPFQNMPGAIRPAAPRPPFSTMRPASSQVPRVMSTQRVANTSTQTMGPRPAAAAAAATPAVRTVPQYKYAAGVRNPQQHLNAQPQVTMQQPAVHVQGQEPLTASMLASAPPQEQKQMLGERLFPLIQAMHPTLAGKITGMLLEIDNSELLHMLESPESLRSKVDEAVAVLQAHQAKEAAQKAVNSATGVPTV
Sequence of Apoptotic protease-activating factor 1 (O14727 whole entry): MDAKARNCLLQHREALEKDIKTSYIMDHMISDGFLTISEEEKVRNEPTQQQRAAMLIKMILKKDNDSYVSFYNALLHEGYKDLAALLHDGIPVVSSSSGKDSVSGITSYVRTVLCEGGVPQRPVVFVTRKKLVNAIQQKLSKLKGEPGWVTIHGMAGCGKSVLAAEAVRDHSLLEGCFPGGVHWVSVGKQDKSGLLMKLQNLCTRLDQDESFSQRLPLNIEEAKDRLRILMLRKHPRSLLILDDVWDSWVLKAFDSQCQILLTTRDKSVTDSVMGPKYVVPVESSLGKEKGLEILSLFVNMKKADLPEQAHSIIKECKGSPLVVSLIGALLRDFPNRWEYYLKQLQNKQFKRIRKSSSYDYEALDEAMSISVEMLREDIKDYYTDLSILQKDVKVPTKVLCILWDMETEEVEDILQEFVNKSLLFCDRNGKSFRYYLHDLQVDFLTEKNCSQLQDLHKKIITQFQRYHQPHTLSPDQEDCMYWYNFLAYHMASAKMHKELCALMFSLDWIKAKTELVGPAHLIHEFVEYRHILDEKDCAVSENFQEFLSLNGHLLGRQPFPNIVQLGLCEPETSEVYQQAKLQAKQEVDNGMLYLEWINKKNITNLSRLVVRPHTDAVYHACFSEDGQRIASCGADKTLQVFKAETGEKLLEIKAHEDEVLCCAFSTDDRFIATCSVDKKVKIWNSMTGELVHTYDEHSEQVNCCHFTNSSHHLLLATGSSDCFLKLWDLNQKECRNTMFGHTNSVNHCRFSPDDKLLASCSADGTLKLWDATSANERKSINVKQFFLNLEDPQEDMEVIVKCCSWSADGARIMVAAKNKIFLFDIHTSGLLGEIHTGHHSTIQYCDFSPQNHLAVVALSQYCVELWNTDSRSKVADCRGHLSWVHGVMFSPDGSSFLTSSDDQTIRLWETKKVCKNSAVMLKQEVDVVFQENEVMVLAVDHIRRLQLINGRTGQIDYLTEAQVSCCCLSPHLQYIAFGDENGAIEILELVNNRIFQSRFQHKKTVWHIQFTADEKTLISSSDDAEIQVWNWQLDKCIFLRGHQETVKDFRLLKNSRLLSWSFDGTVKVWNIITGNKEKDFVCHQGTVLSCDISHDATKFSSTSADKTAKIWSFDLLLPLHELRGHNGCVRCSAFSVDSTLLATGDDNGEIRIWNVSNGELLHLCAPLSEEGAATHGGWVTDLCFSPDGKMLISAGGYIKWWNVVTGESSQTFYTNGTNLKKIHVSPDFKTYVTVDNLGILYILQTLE

Compound: CC1(C)Oc2ccc3ccc(=O)oc3c2C(/C=N/O)=C1Cl
- IC50 [1]: > 100 µM (inactive)
- IC50 [2]: 10.3 µM (active)
- IC50 [3]: 4.97 µM (active)
- IC50 [4]: 6.8 µM (active)
- IC50 [5]: > 99 µM (inactive)
- IC50 [6]: 43 µM (inactive)

Compound: Oc1cc(N/N=C/c2ccccc2)nc(O)n1
- AC50 [7]: 8.88 µM (active)
- IC50 [8]: 20 µM (active)

Compound: Cc1ccc(C(=O)N/N=C/c2c(O)ccc3ccccc23)cn1
- EC50 [9]: > 150 µM (inactive)
- EC50 (BJ [10]): 1 µM (active)
- EC50 (cells [11]): 6.93 µM (active)
- EC50 (BJ [12]): 10.4 µM (inconclusive)
- EC50 [13]: 0.803 µM (active)
- IC50 [14]: 3.96 µM (active)
- EC50 [15]: 1.59 µM (active)
- EC50 (cells [16]): > 350 µM (not active)
- EC50 [17]: > 180 µM (inactive)
- EC50 [18]: 10.9 µM (active)
- EC50 (BJ [19]): 13.1 µM (active)
- EC50 [20]: 2.72 µM (active)
- AC50 (HEK293): 5.41 µM (active)
- AC50 [21]: 9.88 µM (active)
- EC50 [22]: > 150 µM (inactive)

— ChEMBL document CHEMBL1201862, “PubChem BioAssay data set” (2004)
